Results reported in the OPERA property sets (Mansouri et al. 2018).

`O=C(NC1CCCCC1)NS(=O)(=O)c1ccc(Cl)cc1` gave a logP of 3.38. `Cc1ccc(N(CCO)CCO)cc1` showed a logP of 1.09. For `O=C1CC(c2ccccc2)c2ccccc2N1` (stereo unspecified), the logP was 2.79. With `C=CCC(NC(=O)C(Cc1ccc(OC)cc1)NS(=O)(=O)N1CCOCC1)C(=O)NC(CC1CCCCC1)C(=O)C(F)(F)C(=O)NCCN1CCOCC1` (stereo unspecified) the logP was 2.73. Molecule `CC1CC2C3CC(F)C4=CC(=O)C(Cl)=CC4(C)C3(Cl)C(O)CC2(C)C1(O)C(=O)COC(=O)C(C)(C)C` (stereo unspecified) has a logP of 4.73. `O=C(NN1CC=CCC1)c1ccco1` gave a logP of 0.81. Work on `Clc1ccc(OCc2cccc(CN3CCOCC3)c2)cc1` yielded a logP of 3.52. In the case of `CCNCc1ccccc1`, the logP is reported as 1.82. Work on `C=C(C)OCc1ccccc1` yielded a logP of 2.41. In the case of `Cc1cccc(C(=O)c2ccc3n2CCC3C(=O)O)c1` (stereo unspecified), the logP is reported as 3.23. Molecule `Clc1ccc(-c2ccccc2)cc1Cl` has a logP of 5.29. In the case of `Nc1ccc(S(=O)(=O)Nc2ccccc2[N+](=O)[O-])cc1`, the logP is reported as 2.11. In the case of `CCCCCCCC(C)(C)c1ccc(C2CCCC(O)C2)c(O)c1` (stereo unspecified), the logP is reported as 7.18. With `CON=C(C(=O)N[C@@H]1C(=O)N2C(C(=O)O)=C(COC(N)=O)CS[C@H]12)c1ccco1` the logP was -0.16. In the case of `CC(C(=O)NCCO)n1ccnc1[N+](=O)[O-]` (stereo unspecified), the logP is reported as -1.16. In the case of `CCCCCCCCCCC(=O)O`, the logP is reported as 4.42. Work on `c1ccc(-c2cnc3ccccc3n2)cc1` yielded a logP of 3.48. `OC(CCN1CCCCC1)(c1ccccc1)C1CC2C=CC1C2` (stereo unspecified) showed a logP of 4.25. With `CC(=O)c1cccc(Nc2ccccc2C(=O)O)c1` the logP was 4.07. `CCCOC(=O)CNC(=O)CCCCSc1ncnc2nc[nH]c12` gave a logP of 1.37. Molecule `O=C1Nc2ccccc2C1c1ccccc1` (stereo unspecified) has a logP of 2.59. `CCCCCCCCCCCCCCCC(=O)O` gave a logP of 7.17. `CC1(C)CCC(c2ccccc2)(N2CCCCC2)CC1` showed a logP of 6.39. `COc1ccc(CCNCC(O)COc2ccc(-c3ncc(Cl)[nH]3)cc2)cc1OC` (stereo unspecified) gave a logP of 2.4. `CCN1CC(C(O)C(CC2CCCCC2)NC(=O)C(Cc2c[nH]cn2)NC(=O)C(CC(=O)N2CCOCC2)Cc2ccccc2)OC1=O` (stereo unspecified) gave a logP of 2.2. For `COC1CC(OC2CCC3(C)C(CCC4C3CCC3(C)C(C5=CC(=O)OC5)C(O)CC43O)C2)OC(C)C1O` (stereo unspecified), the logP was 0.59. With `Cc1ccc(CCN)cc1` the logP was 1.83. Work on `CC(=O)O[C@H]1C[C@H](O[C@H]2[C@@H](O)C[C@H](O[C@H]3[C@@H](O)C[C@H](O[C@H]4CC[C@@]5(C)[C@H](CC[C@@H]6[C@@H]5C[C@@H](O)[C@]5(C)[C@@H](C7=CC(=O)OC7)CC[C@]65O)C4)O[C@@H]3C)O[C@@H]2C)O[C@H](C)[C@H]1O` yielded a logP of 1.97. Molecule `O=c1ccc2ccc3occc3c2o1` has a logP of 2.08. Work on `C#CCC(O)(c1cccnc1)C1CCCCC1` (stereo unspecified) yielded a logP of 2.09. Molecule `Cc1cccc(C)c1NC(=O)C(C)N(C)C` (stereo unspecified) has a logP of 1.53. `CCOC(=O)C(C(=O)OCC)=C1SCCS1` gave a logP of 2.45. With `OC1(c2cc(Cl)ccc2Cl)CCCCC1n1cncn1` (stereo unspecified) the logP was 3.24. In the case of `CN(Cc1ccc(Cl)cc1)N=Nc1ccc(C(=O)O)cc1`, the logP is reported as 4.85. With `COC(=O)CCC(C)=O` the logP was -0.13. For `COc1ccc(CC(C)N)cc1OC` (stereo unspecified), the logP was 1.2. `O=C(O)c1cccnc1` gave a logP of 0.36. Molecule `CC(=O)Oc1cc(OC(C)CCCc2ccccc2)cc2c1C1CC(O)CCC1C(C)N2C` (stereo unspecified) has a logP of 5.72. Molecule `CC1CCC(c2ccccc2)(N2CCCCC2)CC1` (stereo unspecified) has a logP of 5.66. `CNC(Cc1ccccc1)Cc1ccccc1` gave a logP of 3.8. In the case of `CCOc1cc(Cc2cnc(N)nc2N)ccc1OC`, the logP is reported as 1.2. With `CCCCn1c(=O)[nH]c(=O)c2[nH]cnc21` the logP was 0.84. With `CCN1CC(C(O)C(CC2CCCCC2)NC(=O)C(Cc2cnc[nH]2)NC(=O)C(Cc2ccc(OC)cc2)NC(=O)N(C)CCOCOCCOC)OC1=O` (stereo unspecified) the logP was 2.03. `CCCCCCC(C)=NNC(=N)N` showed a logP of 2.08. `NS(=O)(=O)c1ccc(Cl)c(Cl)c1` gave a logP of 1.44. Work on `CNCCCN1c2ccccc2Sc2ccc(Cl)cc21` yielded a logP of 4.94. In the case of `CCOc1ccc(NC(=O)CN2CCCCC2)cc1`, the logP is reported as 2.82. Molecule `Clc1cc(Cl)cc(-c2ccccc2)c1` has a logP of 5.41. Molecule `CN(C)c1ccc2ccccc2n1` has a logP of 2.81. `CSc1cnc2ccccc2n1` gave a logP of 2.79. In the case of `O=C(COc1ccc(OCCNCC(O)COc2ccccc2)cc1)N1CCc2ccccc2C1` (stereo unspecified), the logP is reported as 3.6. In the case of `Cc1c(Br)cccc1N=C1NCCN1`, the logP is reported as 1.94. Work on `CNC(=O)Oc1ccc(N(C)C)c(C)c1` yielded a logP of 1.9. In the case of `CCc1ccc(C2C(=O)c3ccccc3C2=O)cc1`, the logP is reported as 3.92. With `NC1CCc2ccccc2C1` (stereo unspecified) the logP was 2.08. For `O=c1[nH]c(-c2ccccc2)nc2nn[nH]c12`, the logP was 1.27. Molecule `CCN1CC(C(O)C(CC2CCCCC2)NC(=O)C(Cc2cnc[nH]2)NC(=O)C(CC(=O)N(C)CCOC)Cc2ccccc2)OC1=O` (stereo unspecified) has a logP of 2.45. `C=C(C)C(=O)OCC(C)(C)COC(=O)C(=C)C` gave a logP of 2.79. For `COCOC(=O)C1N2C(=O)C(N3C(=O)C(c4ccc(O)cc4)NC3(C)C)C2SC1(C)C` (stereo unspecified), the logP was 0.3. `OC1CCCc2ccccc21` (stereo unspecified) showed a logP of 1.98. `CC(C)OC(=O)[C@@H](N)Cc1ccc(O)c(O)c1` gave a logP of 0.57. `O=[N+]([O-])O[C@@H]1CO[C@H]2[C@@H]1OC[C@@H]2O` showed a logP of -0.15. Molecule `COc1cc(CCN)cc(OC)c1OCc1ccccc1` has a logP of 2.4. Molecule `Cc1cnc([N+](=O)[O-])n1CCO` has a logP of 0.18. Work on `N#CC(CCN1CCC(C(N)=O)(N2CCCCC2)CC1)(c1ccccc1)c1ccccc1` yielded a logP of 3.91. `CC(=O)OCCCN1C(=O)C(OC(C)=O)N=C(c2ccccc2)c2cc(Cl)ccc21` (stereo unspecified) showed a logP of 3.08.
